According to PubChem BioAssay (NCI):
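The compound was tested at five concentrations on cells cultured in 96-well plates, with a 48-hour exposure period. GI50: concentration for 50% inhibition of growth. TGI marks complete inhibition of growth.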

Key:
Assay in all cases: NCI anticancer screen, dose series, 48 h
RXF 393 renal = system: RXF 393 renal
SNB-75 CNS = system: SNB-75 CNS
UACC-62 melanoma = system: UACC-62 melanoma
UACC-257 melanoma = system: UACC-257 melanoma
NCI-H522 lung = system: NCI-H522 lung
OVCAR-5 ovarian = system: OVCAR-5 ovarian
OVCAR-8 ovarian = system: OVCAR-8 ovarian
U251 CNS = system: U251 CNS
HCC-2998 colon = system: HCC-2998 colon
PC-3 prostate = system: PC-3 prostate
HS 578T breast = system: HS 578T breast
ACHN renal = system: ACHN renal
HOP-62 NSCLC = system: HOP-62 NSCLC
NCI-H226 lung = system: NCI-H226 lung
M14 melanoma = system: M14 melanoma
SK-MEL-28 melanoma = system: SK-MEL-28 melanoma
SW-620 colon = system: SW-620 colon
HL-60(TB) leukemia = system: HL-60(TB) leukemia
SF-268 CNS = system: SF-268 CNS
HOP-92 NSCLC = system: HOP-92 NSCLC
NCI/ADR-RES ovarian = system: NCI/ADR-RES ovarian
OVCAR-4 ovarian = system: OVCAR-4 ovarian
MDA-MB-231 breast = system: MDA-MB-231 breast
MOLT-4 leukemia = system: MOLT-4 leukemia
EKVX NSCLC = system: EKVX NSCLC
SF-539 CNS = system: SF-539 CNS
DU-145 prostate = system: DU-145 prostate
SN12C renal = system: SN12C renal
A549 NSCLC = system: A549 NSCLC
NCI-H460 lung = system: NCI-H460 lung
CCRF-CEM leukemia = system: CCRF-CEM leukemia
SR leukemia = system: SR leukemia
TK-10 renal = system: TK-10 renal
NCI-H23 lung = system: NCI-H23 lung
MALME-3M melanoma = system: MALME-3M melanoma
RPMI-8226 leukemia = system: RPMI-8226 leukemia
SK-MEL-5 melanoma = system: SK-MEL-5 melanoma
MDA-MB-435 = system: MDA-MB-435
MCF7 breast = system: MCF7 breast
SK-OV-3 ovarian = system: SK-OV-3 ovarian
OVCAR-3 ovarian = system: OVCAR-3 ovarian
SF-295 CNS = system: SF-295 CNS
HCT-116 colon = system: HCT-116 colon
COLO 205 colon = system: COLO 205 colon
SNB-19 CNS = system: SNB-19 CNS
BT-549 breast = system: BT-549 breast
IGROV1 ovarian = system: IGROV1 ovarian
HT29 colon = system: HT29 colon
786-0 renal = system: 786-0 renal
MDA-N = system: MDA-N
KM12 colon = system: KM12 colon
T-47D breast = system: T-47D breast
HCT-15 colon = system: HCT-15 colon
K-562 leukemia = system: K-562 leukemia
UO-31 renal = system: UO-31 renal
CAKI-1 renal = system: CAKI-1 renal
SK-MEL-2 melanoma = system: SK-MEL-2 melanoma
LOX IMVI melanoma = system: LOX IMVI melanoma

Compound: O=C(CN=C(CN(c1ccccc1)c1ccccc1)Oc1c(Cl)cc(Cl)cc1Cl)N1c2ccccc2Sc2ccccc21
- TGI (RXF 393 renal): 27.4 µM
- TGI (SNB-75 CNS): > 100 µM
- TGI (UACC-62 melanoma): > 100 µM
- TGI (UACC-257 melanoma): > 100 µM
- TGI (NCI-H522 lung): > 100 µM
- TGI (OVCAR-5 ovarian): > 100 µM
- TGI (OVCAR-8 ovarian): > 100 µM
- TGI (U251 CNS): > 100 µM
- TGI (HCC-2998 colon): > 100 µM
- TGI (PC-3 prostate): > 100 µM
- TGI (HS 578T breast): > 100 µM
- TGI (ACHN renal): > 100 µM
- TGI (HOP-62 NSCLC): > 100 µM
- TGI (NCI-H226 lung): > 100 µM
- TGI (M14 melanoma): > 100 µM
- TGI (SK-MEL-28 melanoma): > 100 µM
- TGI (SW-620 colon): > 100 µM
- TGI (HL-60(TB) leukemia): > 100 µM
- TGI (SF-268 CNS): > 100 µM
- TGI (HOP-92 NSCLC): 57.2 µM
- TGI (NCI/ADR-RES ovarian): > 100 µM
- TGI (OVCAR-4 ovarian): > 100 µM
- TGI (MDA-MB-231 breast): > 100 µM
- TGI (MOLT-4 leukemia): > 100 µM
- TGI (EKVX NSCLC): > 100 µM
- TGI (SF-539 CNS): > 100 µM
- TGI (DU-145 prostate): > 100 µM
- TGI (SN12C renal): > 100 µM
- TGI (A549 NSCLC): > 100 µM
- TGI (NCI-H460 lung): > 100 µM
- TGI (CCRF-CEM leukemia): > 100 µM
- TGI (SR leukemia): > 100 µM
- TGI (TK-10 renal): > 100 µM
- TGI (NCI-H23 lung): > 100 µM
- TGI (MALME-3M melanoma): > 100 µM
- TGI (RPMI-8226 leukemia): > 100 µM
- TGI (SK-MEL-5 melanoma): > 100 µM
- TGI (MDA-MB-435): > 100 µM
- TGI (MCF7 breast): > 100 µM
- TGI (SK-OV-3 ovarian): > 100 µM
- TGI (OVCAR-3 ovarian): > 100 µM
- TGI (SF-295 CNS): > 100 µM
- TGI (HCT-116 colon): > 100 µM
- TGI (COLO 205 colon): > 100 µM
- TGI (SNB-19 CNS): > 100 µM
- TGI (BT-549 breast): > 100 µM
- TGI (IGROV1 ovarian): > 100 µM
- TGI (HT29 colon): > 100 µM
- TGI (786-0 renal): > 100 µM
- TGI (MDA-N): > 100 µM
- TGI (KM12 colon): > 100 µM
- TGI (T-47D breast): > 100 µM
- TGI (HCT-15 colon): > 100 µM

Compound: COc1cccc(/C=C/c2ccc(S(N)(=O)=O)cc2)c1
- GI50 (K-562 leukemia): 20.6 µM
- TGI (K-562 leukemia): > 100 µM
- TGI (RXF 393 renal): > 100 µM
- TGI (SNB-75 CNS): 91.2 µM
- GI50 (UACC-62 melanoma): 14 µM
- TGI (UACC-62 melanoma): 58.9 µM
- TGI (UACC-257 melanoma): 60.9 µM
- TGI (OVCAR-5 ovarian): > 100 µM
- GI50 (OVCAR-8 ovarian): 31.6 µM
- TGI (OVCAR-8 ovarian): > 100 µM
- GI50 (U251 CNS): 5.54 µM
- TGI (U251 CNS): > 100 µM
- TGI (HCC-2998 colon): 87.2 µM
- TGI (UO-31 renal): > 100 µM
- TGI (PC-3 prostate): > 100 µM
- GI50 (HS 578T breast): 25.5 µM
- TGI (HS 578T breast): 80.1 µM
- GI50 (ACHN renal): 7.12 µM
- TGI (ACHN renal): > 100 µM
- TGI (HOP-62 NSCLC): > 100 µM
- GI50 (CAKI-1 renal): 14.7 µM
- TGI (CAKI-1 renal): > 100 µM
- GI50 (NCI-H226 lung): 2.91 µM
- TGI (NCI-H226 lung): 17.5 µM
- TGI (M14 melanoma): > 100 µM
- TGI (SK-MEL-28 melanoma): > 100 µM
- GI50 (HL-60(TB) leukemia): 10.4 µM
- TGI (HL-60(TB) leukemia): 77.7 µM
- GI50 (SF-268 CNS): 17.1 µM
- TGI (SF-268 CNS): > 100 µM
- GI50 (HOP-92 NSCLC): 3.29 µM
- TGI (HOP-92 NSCLC): 35.8 µM
- TGI (NCI/ADR-RES ovarian): > 100 µM
- GI50 (OVCAR-4 ovarian): 25 µM
- TGI (OVCAR-4 ovarian): > 100 µM
- TGI (MDA-MB-231 breast): 79.6 µM
- TGI (SK-MEL-2 melanoma): 36.8 µM
- GI50 (MOLT-4 leukemia): 26.8 µM
- TGI (MOLT-4 leukemia): > 100 µM
- TGI (EKVX NSCLC): > 100 µM
- GI50 (SF-539 CNS): 16.8 µM
- TGI (SF-539 CNS): 77.6 µM
- TGI (DU-145 prostate): > 100 µM
- TGI (SN12C renal): 89.6 µM
- GI50 (A549 NSCLC): 11 µM
- TGI (A549 NSCLC): > 100 µM
- TGI (NCI-H460 lung): > 100 µM
- GI50 (CCRF-CEM leukemia): 13.6 µM
- TGI (CCRF-CEM leukemia): > 100 µM
- GI50 (SR leukemia): 5.21 µM
- TGI (SR leukemia): 40.8 µM
- TGI (TK-10 renal): 90 µM
- GI50 (NCI-H23 lung): 21 µM
- TGI (NCI-H23 lung): 57.5 µM
- TGI (MALME-3M melanoma): > 100 µM
- GI50 (RPMI-8226 leukemia): 3.81 µM
- TGI (RPMI-8226 leukemia): 19.8 µM
- TGI (SK-MEL-5 melanoma): 66.8 µM
- GI50 (MDA-MB-435): 17.4 µM
- TGI (MDA-MB-435): > 100 µM
- TGI (MCF7 breast): > 100 µM
- TGI (SK-OV-3 ovarian): > 100 µM
- TGI (OVCAR-3 ovarian): 27.5 µM
- TGI (SF-295 CNS): > 100 µM
- TGI (HCT-116 colon): 21.7 µM
- TGI (COLO 205 colon): 42.8 µM
- TGI (SNB-19 CNS): > 100 µM
- GI50 (BT-549 breast): 6.38 µM
- TGI (BT-549 breast): > 100 µM
- GI50 (LOX IMVI melanoma): 30.7 µM
- TGI (LOX IMVI melanoma): > 100 µM
- GI50 (IGROV1 ovarian): 2.5 µM
- TGI (IGROV1 ovarian): 28.9 µM
- GI50 (HT29 colon): 0.554 µM
- TGI (HT29 colon): > 100 µM
- TGI (786-0 renal): 98.2 µM
- TGI (MDA-N): > 100 µM
- GI50 (KM12 colon): 12.2 µM
- TGI (KM12 colon): > 100 µM
- TGI (T-47D breast): > 100 µM
- GI50 (HCT-15 colon): 3.6 µM
- TGI (HCT-15 colon): 65.4 µM
